Reference: ChEMBL document CHEMBL1201862, “PubChem BioAssay data set” (2004)
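Cultured in 96-well plates, cells were exposed to test compound for 48 hours across five concentrations. GI50 is the concentration that inhibits growth by half.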 The source made the active and inactive calls. Cut-off read from the data, not from the text of the source: active = GI50 up to about 1.1 µM and inactive = higher.

Assays:
Assay in all cases: NCI-60 cell line screen, 48 h
NCI-H460 = test system: NCI-H460
SNB-19 = test system: SNB-19
SW-620 = test system: SW-620
HOP-62 = test system: HOP-62
OVCAR-4 = test system: OVCAR-4
SK-MEL-2 = test system: SK-MEL-2
HCC 2998 = test system: HCC 2998
CCRF-CEM = test system: CCRF-CEM
NCI-H522 = test system: NCI-H522
HOP-92 = test system: HOP-92
RXF 393 = test system: RXF 393
ACHN = test system: ACHN
IGROV-1 = test system: IGROV-1
UACC-62 = test system: UACC-62
Malme-3M = test system: Malme-3M
TK-10 = test system: TK-10
U-251 = test system: U-251

SMILES | GI50 (NCI-H460) | GI50 (SNB-19) | GI50 (SW-620) | GI50 (HOP-62) | GI50 (OVCAR-4) | GI50 (SK-MEL-2) | GI50 (HCC 2998) | GI50 (CCRF-CEM) | GI50 (NCI-H522) | GI50 (HOP-92) | GI50 (RXF 393) | GI50 (ACHN) | GI50 (IGROV-1) | GI50 (UACC-62) | GI50 (Malme-3M) | GI50 (TK-10) | GI50 (U-251)
CC(C)C1COC(c2ccc3ccccc3c2-c2c(O[Si](C)(C)C(C)(C)C)ccc3ccccc23)=N1 (centres undefined) | 19.6 µM (inactive) | 14.9 µM (inactive) | 18.5 µM (inactive) | 18.8 µM (inactive) | 14.6 µM (inactive) | 16.1 µM (inactive) | 15.1 µM (inactive) | 18.1 µM (inactive) | 15.2 µM (inactive) | 13.6 µM (inactive) | 18.8 µM (inactive) | 18.9 µM (inactive) | 20.2 µM (inactive) | 15.8 µM (inactive) | 18.4 µM (inactive) | 17.9 µM (inactive) | 
O=C(CCN(CCO)CCO)Nc1ccc2c(c1)C(=O)c1ccc(NC(=O)CCN(CCO)CCO)cc1C2=O | 10.8 µM (inactive) | 22.5 µM (inactive) | 6.73 µM (inactive) | 29.4 µM (inactive) | 20 µM (inactive) | 3.37 µM (inactive) | 1.51 µM (inactive) | 6.52 µM (inactive) | 5.89 µM (inactive) | 26.7 µM (inactive) | 4 µM (inactive) | 9.29 µM (inactive) | 13.7 µM (inactive) | 3.44 µM (inactive) | 12.8 µM (inactive) | 13.4 µM (inactive) | 22.3 µM (inactive)
COc1c2c(cc3c1C(=O)Cc1ccc4c(c1CN(C)CC3)OCO4)OCO2 | 67.3 µM (inactive) | > 100 µM (inactive) | > 100 µM (inactive) | > 100 µM (inactive) | 75.5 µM (inactive) | > 100 µM (inactive) | > 100 µM (inactive) | 70.5 µM (inactive) | > 100 µM (inactive) | 5.71 µM (inactive) | > 100 µM (inactive) | > 100 µM (inactive) | 18.5 µM (inactive) | > 100 µM (inactive) | > 100 µM (inactive) | > 100 µM (inactive) | 86.9 µM (inactive)
CCOC(=O)CCn1cnc(N)n1 | > 100 µM (inactive) | > 100 µM (inactive) | > 100 µM (inactive) | > 100 µM (inactive) | > 100 µM (inactive) | > 100 µM (inactive) | > 100 µM (inactive) | > 100 µM (inactive) | > 100 µM (inactive) | > 100 µM (inactive) | > 100 µM (inactive) | > 100 µM (inactive) | > 100 µM (inactive) | > 100 µM (inactive) | > 100 µM (inactive) | > 100 µM (inactive) | > 100 µM (inactive)
C=CC1=CC(C)C[C@]1(O)C(=O)OC (some centres undefined) | < 0.01 µM (active) | < 0.01 µM (active) | 38.5 µM (inactive) | < 0.01 µM (active) | < 0.01 µM (active) | < 0.01 µM (active) | < 0.01 µM (active) | < 0.01 µM (active) | > 100 µM (inactive) | < 0.01 µM (active) | < 0.01 µM (active) | < 0.01 µM (active) | < 0.01 µM (active) | < 0.01 µM (active) | < 0.01 µM (active) | < 0.01 µM (active) | < 0.01 µM (active)
COc1cc(O)c2c(c1)C(=O)C=C(Cl)C2=O |  | > 100 µM (inactive) | > 100 µM (inactive) |  | > 100 µM (inactive) | > 100 µM (inactive) | 83.6 µM (inactive) | > 100 µM (inactive) | > 100 µM (inactive) | > 100 µM (inactive) | > 100 µM (inactive) | 94.6 µM (inactive) | > 100 µM (inactive) | > 100 µM (inactive) | > 100 µM (inactive) | > 100 µM (inactive) | > 100 µM (inactive)
CC(=O)/C=C/c1ccc(C2CC(C)=Nc3c(ccc4c3C(=O)c3ccccc3C4=O)N2)cc1 (centres undefined) | 30 µM (inactive) | > 100 µM (inactive) | 38.5 µM (inactive) | 58.1 µM (inactive) | > 85.9 µM (inactive) | > 29.6 µM (inactive) | > 100 µM (inactive) | 1.28 µM (inactive) | > 20 µM (inactive) | 28.2 µM (inactive) | 92 µM (inactive) | 19 µM (inactive) | 9.12 µM (inactive) | 59.7 µM (inactive) | 89.1 µM (inactive) | 8.89 µM (inactive) | 59.7 µM (inactive)
Cc1cc(N)c2cc(NC(=O)CCCCCCCCC(=O)Nc3ccc4nc(C)cc(N)c4c3)ccc2n1 | 2.47 µM (inactive) | > 38.4 µM (inactive) | 27.9 µM (inactive) | > 61.9 µM (inactive) | > 100 µM (inactive) | > 100 µM (inactive) | 10.3 µM (inactive) | 10.7 µM (inactive) | 1.98 µM (inactive) | 33.7 µM (inactive) | > 65.3 µM (inactive) | 69.5 µM (inactive) | > 30.5 µM (inactive) | > 77.3 µM (inactive) | 25.4 µM (inactive) | 45.8 µM (inactive) | 18.4 µM (inactive)
CN/N=C(\C)CC(=O)Nc1cccc(Cl)c1C | > 100 µM (inactive) | > 100 µM (inactive) |  | > 100 µM (inactive) | > 100 µM (inactive) | > 100 µM (inactive) | > 100 µM (inactive) | 96.6 µM (inactive) | 38.6 µM (inactive) | > 100 µM (inactive) | > 100 µM (inactive) | > 100 µM (inactive) | > 100 µM (inactive) | > 100 µM (inactive) | > 100 µM (inactive) | > 100 µM (inactive) | > 100 µM (inactive)
COc1ccc(C(=O)C(C(=O)CCC(=O)Nc2ccc(Cl)c(Cl)c2)c2ccc(OC)cc2)cc1 (centres undefined) | > 100 µM (inactive) | > 100 µM (inactive) | > 100 µM (inactive) | > 100 µM (inactive) | > 100 µM (inactive) | > 100 µM (inactive) | > 100 µM (inactive) | > 100 µM (inactive) | > 100 µM (inactive) | > 100 µM (inactive) | > 100 µM (inactive) | > 100 µM (inactive) | > 100 µM (inactive) | > 100 µM (inactive) | > 100 µM (inactive) | > 100 µM (inactive) | > 100 µM (inactive)
CCCCN(CCCC)CCCn1cnc2ncccc2c1=O | > 100 µM (inactive) | > 100 µM (inactive) | > 100 µM (inactive) | > 100 µM (inactive) | > 100 µM (inactive) | > 100 µM (inactive) | > 100 µM (inactive) | > 100 µM (inactive) | > 100 µM (inactive) | > 100 µM (inactive) | > 100 µM (inactive) | > 100 µM (inactive) | > 100 µM (inactive) | > 100 µM (inactive) | > 100 µM (inactive) | > 100 µM (inactive) | > 100 µM (inactive)
CCC(C)CCOC(=O)c1ccc(/N=C\c2ccc(/C=N/c3ccc(C(=O)OCCC(C)CC)cc3)cc2)cc1 (centres undefined) | > 100 µM (inactive) | > 100 µM (inactive) | > 100 µM (inactive) | > 100 µM (inactive) | > 100 µM (inactive) | > 100 µM (inactive) | > 100 µM (inactive) | > 100 µM (inactive) | > 100 µM (inactive) | > 100 µM (inactive) | > 100 µM (inactive) | > 100 µM (inactive) | > 100 µM (inactive) | > 100 µM (inactive) | > 100 µM (inactive) |  | > 100 µM (inactive)
